Starred links: 1 amine or outer side, 2 acyl side, 3 side chain; linkers in the order of their positions; H or OH if unused. Positions of bridges follow the written chain, without caps; N, C: chain ends. Non-standard residues stand in square brackets, D forms with d. Residues, ends and D or L forms follow the SMILES beside them. *: point of attachment. hTyr(3S-OH,4S-OH,3'-OSO3H) = N[C@H](C(=O)O)[C@H](O)[C@@H](O)c1ccc(O)c(OS(=O)(=O)O)c1; Orn(4R-OH,5R-OH) = O=C([C@H](C[C@@H](O)[C@@H](O)N[*:3])N[*:1])[*:2]; Pro(3S-OH,4S-Me) = C[C@H]1CN[C@H](C(=O)O)[C@H]1O; X1 = CCCCCOc1ccc(-c2cc(-c3ccc(C(=O)*)cc3)no2)cc1; Gln(3R-OH) = NC(=O)C[C@@H](O)[C@H](N)C(=O)O; Hyp = O=C(O)[C@@H]1C[C@@H](O)CN1 A value given as a limit tells only on which side of the number the result lay.

This is an account of results in patent US11692212B2, “Diagnosis and treatment of invasive aspergillosis” (The Brigham and Women's Hospital, Inc., priority 2014, dated 2023).

The subject of one assay is A. terreus isolates. Conditions: Baddley et al. 2009; cited from earlier work.
In assay [1] the test system is A. fumigatus Af293 and A1163. Briefly: A. fumigatus volatome response to antifungal drug exposure, headspace TD-GC-MS (Example 2). It counts as cell-based, Aspergillus fumigatus. Conditions: 1.0 μg/mL; for all volatile metabolites 36 hours later: 36 hours after the 12-hour sampling. How it is done: We assessed whether we could modulate the A. fumigatus VOC metabolome with voriconazole, micafungin, and liposomal amphotericin B antifungal drug exposure, as described online (Methods). Headspace volatile metabolites of A. terreus, A. flavus, A. niger, and A. calidoustus were characterized as outlined above, in YPD broth at 96 hours.
Assessment of the A. fumigatus volatome response to antifungal drug exposure: For an assessment of A. fumigatus VOC response to antifungal drug exposure, 10^4A. fumigatus Af293 and A1163 conidia were inoculated into YPD broth and incubated at 37° C. at 250 rpm for 48 hours, then exposed to an inhibitory dose (1.0 μg/mL) of voriconazole (Pfizer Inc., New York, N.Y.), micafungin, liposomal amphotericin (both Astellas Pharma US, Inc., Northbrook, Ill.), or no antifungal therapy for 12 hours, in 4 technical replicates, with matched media controls exposed to the same conditions. VOCs in the headspace of each vial were extracted onto thermal desorption tubes. The cultures and media samples were incubated at 37° C. at 250 rpm for another 36 hours, with repeat extraction of the headspace gas onto thermal desorption tubes.
For both in vitro culture headspace extractions and patient breath samples, VOCs were thermally desorbed onto an automated thermal desorption unit (TD-100, Markes International) at 290° C. for 20 minutes with helium carrier gas at a flow rate of 40 mL per minute and concentrated onto a Unity2/TD-100 cold trap (U-15ATA-2S, Markes International). The cold trap was rapidly heated to 270° C. to deliver adsorbed VOCs (3.5:1 split) to a VF624 capillary column (30 m×0.32 mm, 6% cyanopropyl/phenyl, 94% polydimethylsiloxane, film thickness 1.8 μm, Agilent Technologies, Santa Clara, Calif.) with a gas chromatograph (GC) inlet temperature of 250° C. VOCs delivered to the capillary column were separated using a GC temperature program of 40° C. for 3 minutes, raised to 70° C. at a rate of 5° C. per minute and held for 3 minutes, raised to 203° C. at 7° C. per minute and held for 4 minutes, then rapidly raised to 270° C. and held for 5 minutes. A single quadrupole mass spectrometry (MS) detector (Agilent 5975, Agilent Technologies, Santa Clara, Calif.) was used to analyze and identify VOCs, with a MS source temperature of 230° C., MS quad temperature of 150° C., and an electron ionization parameter of […]. A mass range m/z 40-400 was measured with a threshold of 150.
We assessed whether we could modulate the A. fumigatus VOC metabolome with voriconazole, micafungin, and liposomal amphotericin B antifungal drug exposure. […]

The subject of a further assay is Aspergillus fumigatus. As to the kind of experiment: Antifungal exposure of 48-hour hyphal cultures, headspace VOC release by GC-MS (Example 1). Type of assay: cell-based. Also noted: increase in some of the key A. fumigatus VOC features / change of key A. fumigatus VOC features at 24 hours: dose or concentration left out as unconfirmed. Conditions: for change of key A. fumigatus VOC features at 24 hours: vs matched controls. As for the experimental part: For each experiment, 10^4 conidia were inoculated into 5 mL of microbial media (either nutrient Yeast Extract Peptone Dextrose (YPD) broth, nutrient poor Aspergillus minimal media (Pontecorvo et al., Advan Genet 1953; 5:141-238), or under iron-starved, alkaline stress, or nitrogen-depleted conditions (McDonagh et al., PLoS Pathog 2008; 4:e1000154)) in 20 mL glass vials with an airtight crimp top incorporating a rubber septum. Cultures were incubated for 24-144 hours at 200 rpm and 37° C. and headspace gas was dynamically adsorbed, using argon carrier gas and an air sampling pump calibrated to 20 mL/minute, onto Markes thermal desorption traps containing tandem beds of Tenax TA (200 mg), Carbograph 1 TD (100 mg), and Carboxen 1003 (100 mg), optimized to retain VOCs of diverse size and polarity.
Headspace VOCs were also collected after exposure of a subset of fungal isolates to the antifungal drugs voriconazole, liposomal amphotericin B, and micafungin, each at a concentration of […].
VOCs were desorbed onto a dual GC-MS/DMS system (FIG. 1)—the eluent from the gas chromatograph was split between the MS, to allow identification of each compound, and the DMS, an extremely sensitive and selective gas detector that can be easily used as a point-of-care gas detection device, to determine the mobility pattern for each compound. The NIST MS Search 2.0 Library was used to identify VOCs in the total ion chromatogram (TIC) of the GC-MS data. Differences in spectral features of DMS output were visually distinguished between the positive ion spectra of A. fumigatus and A. terreus and principal component analysis (PCA) was used to evaluate the degree of class discrimination between these fungal species using algorithms in MATLAB (Version R2012a).
Whether exposure to antifungal drugs might modulate VOC release in Aspergillus fumigatus was assessed in vitro.

Where [2] appears, read: drug added to 48-hour hyphal cultures, after 24 hours.

Regarding `C[C@@H]1[C@H](O)[C@@H](C)/C=C/C=C/C=C/C=C/C=C/C=C/C=C/[C@H](O[C@@H]2O[C@H](C)[C@@H](O)[C@H](N)[C@@H]2O)C[C@@H]2O[C@](O)(C[C@@H](O)C[C@@H](O)[C@H](O)CC[C@@H](O)C[C@@H](O)CC(=O)O[C@H]1C)C[C@H](O)[C@H]2C(=O)O` [AMB, amphotericin B], in the assay with A. terreus isolates, the “susceptibility of some A. terreus isolates” value is recorded as “resistant”.
With `CCCCCOc1ccc(-c2cc(-c3ccc(C(=O)N[C@H]4C[C@@H](O)[C@@H](O)NC(=O)[C@@H]5[C@@H](O)[C@@H](C)CN5C(=O)[C@H]([C@H](O)CC(N)=O)NC(=O)[C@H]([C@H](O)[C@@H](O)c5ccc(O)c(OS(=O)(=O)O)c5)NC(=O)[C@@H]5C[C@@H](O)CN5C(=O)[C@H]([C@@H](C)O)NC4=O)cc3)no2)cc1` [micafungin] (X1-[Orn(4R-OH,5R-OH)]T[Hyp][hTyr(3S-OH,4S-OH,3'-OSO3H)][Gln(3R-OH)][Pro(3S-OH,4S-Me)]; lactam 1-C), in assay [1] (12 hours of exposure, 48-hour hyphae in YPD broth), the “β-trans-bergamotene increase from baseline” value was 10 fold. Moreover, in assay [1], the “all volatile metabolites 36 hours later” value is given as “near-complete attenuation”. In the assay with Aspergillus fumigatus (drug added to 48-hour hyphal cultures, after 24 hours, vs matched control samples without drug), the “increase in some of the key A. fumigatus VOC features” value is recorded as at most 17 fold. The “change of key A. fumigatus VOC features at 24 hours” value in the assay on Aspergillus fumigatus (setting [2]) is recorded as “initial increase”. Besides, the “change of key A. fumigatus VOC features with longer incubation” value in the assay with Aspergillus fumigatus (longer duration of incubation and hyphal death) is listed as “attenuation”.
As for `C[C@@H](c1ncncc1F)[C@](O)(Cn1cncn1)c1ccc(F)cc1F` [voriconazole], the “primary metabolite, monoterpene, and sesquiterpene production” value in assay [1] (12 hours of exposure) was “reduced”. The “all volatile metabolites 36 hours later” value in assay [1] is on record as “attenuation”. In the assay on Aspergillus fumigatus (setting [2]), the “change of key A. fumigatus VOC features at 24 hours” value was “near-complete attenuation”.
